Laboratory results reported in USRE48253E1, “Methotrexate adjuvants to reduce toxicity and methods for using the same” (Tosk, Inc., priority 2008, dated 2020).
Where two headings read alike, the source gives them in different places.

How the values were obtained:
[1] = tested on: AS283 human lymphoma xenografts; assay: Mouse Study V: xenograft with AS283 implants; type: in vivo, C.B.-17 SCID mice; details: p=1.0
Protocol: Six-week-old male SCID mice were implanted with fragments of AS283 human lymphoma tumors. The tumors were allowed to reach 75-198 mg in weight (75-198 mm^3 in size) before the start of treatment. The experiment consisted of two treatment groups and one vehicle-treated control group, with ten animals per group, for a total of 30 mice on the first day of treatment.
TK-112690 was administered by ip injection [twice every 2 days for 5 injections with six hour interval (q6h×2, q2d×5)] at a dosage of 30 mg/kg/injection. MTX was administered by ip injection q2d×5 at a dosage of 5.0 mg/kg/injection three hours after the TK-112690 injection. The control group was treated with both vehicles, which were administered on the corresponding compound schedules.
Six-week-old male C.B.-17 SCID mice were acclimated in the laboratories for seven days prior to experimentation. Thirty-to-forty mg fragments of AS283 human lymphoma tumor were implanted sc in mice near the right flank using a 12-gauge trocar needle and allowed to grow. […]
The sc tumors were measured and the animals were weighed thrice weekly starting the day of the first treatment. Tumor volume was determined by caliper measurements (mm) and using the formula for an ellipsoid sphere: L×W^2/2=mm^3, where L and W refer to the larger and smaller perpendicular dimensions collected at each measurement. […]

[2] = target: mouse small intestinal UPase enzyme (Mus musculus, UniProt P52624); assay: UPase inhibition in mouse small intestinal tissue homogenate (HPLC of uracil); type: biochemical
mouse small intestinal UPase enzyme, sequence (P52624 whole entry, looked up): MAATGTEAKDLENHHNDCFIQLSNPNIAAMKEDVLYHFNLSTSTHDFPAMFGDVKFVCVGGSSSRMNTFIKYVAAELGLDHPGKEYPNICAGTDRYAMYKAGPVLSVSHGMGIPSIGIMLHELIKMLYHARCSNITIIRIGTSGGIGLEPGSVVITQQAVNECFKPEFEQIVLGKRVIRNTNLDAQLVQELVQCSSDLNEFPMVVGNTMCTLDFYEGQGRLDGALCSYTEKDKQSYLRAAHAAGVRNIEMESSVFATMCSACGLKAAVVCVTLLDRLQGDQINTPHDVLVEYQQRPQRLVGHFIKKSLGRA
Protocol: A range of TK-112690 doses were studied for the their ability to prevent metabolic breakdown of uridine through the in vitro inhibition of mouse and human small intestinal UPase enzyme. UPase activity was determined by HPLC analysis using UV detection of uracil concentration (UPase catabolizes uridine into uracil and ribose-1-phosphate). The UPase enzyme material was prepared from homogenized mouse and human being small intestinal tissue. TK-112690 was dissolved in water (50 mg/ml) and analyzed for UPase inhibition in aqueous solution containing 5 mM uridine, 0.01 M Tris, 0.01 M phosphate, 1 mM EDTA, and 1 mM DTT. Reactions were performed at 37° C. at pH of 7.3.
The aim of this study was to evaluate TK-112690 […] as an inhibitor of uridine phosphorylase (UPase) enzyme activity. The range of TK-112690 doses studied for ability to prevent metabolic breakdown of uridine, through the in vitro inhibition of mouse and human small intestinal UPase enzyme, was 0, 0.1, 0.5, 1, 5, 10, 50, 100, 500, 1000, 5000 and 10000 μM). Detection of UPase activity was determined by HPLC analysis using UV detection of uracil concentration (UPase catabolizes uridine into uracil and ribose-1-phosphate).
The UPase enzyme material was prepared from homogenized mouse and human being small intestinal tissue. TK-112690 was dissolved in water (50 mg/ml) and analyzed for UPase inhibition in aqueous solution containing 5 mM uridine, 0.01 M Tris, 0.01 M phosphate, 1 mM EDTA, and 1 mM DTT. Reactions were performed at 37° C. at pH of 7.3.
TK-11260 inhibition of mouse and human UPase was analyzed by reverse phase HPLC using UV detection. HPLC analysis was performed at ambient temperature with a Water 2695 Alliance system equipped with a C18 ECONOSIL 5 U ALLtech column. 20 μl of UPase reaction samples were auto-injected onto column. Mobile phase consisted of water eluting for first 2.5 ml and acetonitrile gradient to 100% in 12.5 ml (flow rate 0.5 ml/min). The outlet fluent was monitored by UV absorption in the range of 240-320 nm. UPase enzymatic activity was based on the AUC of the uracil peaks.

Q: Which results are given for Cc1cn2c(nc1=O)O[C@H]1[C@H](O)[C@@H](CO)O[C@H]12 [TK-112690, 2,2′-anhydro-5-methyluridine]?
A: tumor volumes Day 21, MTX+TK-112690 vs MTX [1]: no statistical difference; IC50 ([2]; 5 mM uridine, 37° C., pH 7.3, read-out: IC50, mouse small intestinal (murine) UPase): 12.5 µM; IC50 ([2]; Table 3, murine UPase, test method of Experiment IX, read-out: UPase IC50): < 100 µM
